Where two headings read alike, the source gives them in different places.
Experiments:
β-adrenergic nerves = assay: Antagonistic activity against isoproterenol (β-adrenergic nerves blocking activity), anesthetized dogs; format: in vivo, Mongrel dogs; conditions: Canis lupus familiaris, iv, isoproterenol 0.3 μg/kg, dog; for inhibition at 0.0001 mg/kg: 0.1 μg/kg i.v.; for inhibition at 0.001 mg/kg: 1.0 μg/kg i.v.; for inhibition at 0.01 mg/kg: 10 μg/kg i.v.; for inhibition at 0.1 mg/kg: 100 μg/kg i.v.
Experimental: For example, the antagonistic activity against isoproterenol (as an indication of β-adrenergic nerves blocking activity) of the 3,4-dihydrocarbostyril derivatives of the present invention was measured according to a method as described in R. D. Robson and H. R. Kaplan, "J. Pharmacol. Exp. Therap.," Vol. 175, page 157 (1970) as follows:
Mongrel dogs of both sexes weighing 9.7 - 19.0 kg were anesthetized with pentobarbital-Na (30 mg/kg, i.v.) and fixed on their back. Anesthesia was maintained by continuous intravenous infusion of pentobarbital-Na at a rate of 4 mg/kg/hour.
Arterial blood pressure was measured from the left femoral artery with a pressure transducer (Nihon Kohden, RP-3). The left femoral vein was cannulated for i.v. injection of drugs. Heart rate was measured with a tachometer (San-ei, type 2130) treggered by the R wave of ECG (Lead II). Blood pressure and heart rate were simultaneously recorded on an ink-writing recorder (San-ei, type 145).
Test drugs were cumulatively injected at intervals of 10 minutes after reproducibility test on the positive chronotropic and hypotensive actions of a submaximal dose of 0.3 μg/kg of isoproterenol. At the time when responses of blood pressure and heart rate to these test drugs were stabilized, at about 3 minutes after injection, isoproterenol 0.3 μg/kg was injected again. Their antagonistic activities were determined from difference between responses to isoproterenol before and after administration of the test drugs and expressed as % inhibition.

[1] = Hypotensive action, arterial blood pressure in anesthetized dogs; format: in vivo, Mongrel dogs; conditions: cumulative, anesthetized dog
Experimental: Mongrel dogs of both sexes weighing 9.7 - 19.0 kg were anesthetized with pentobarbital-Na (30 mg/kg, i.v.) and fixed on their back. Anesthesia was maintained by continuous intravenous infusion of pentobarbital-Na at a rate of 4 mg/kg/hour. After the vinyl catheter was inserted in the left femoral vein, heparin sodium, 1000 U/kg, was intravenously injected in order to prevent blood coagulation. Arterial blood pressure was measured from the left femoral artery with a pressure transducer (Nihon Kohden, RP-3). Test drugs were dissolved in 0.9% physiological saline solution and then intravenously administered with the cumulative method at intervals of 5 - 10 minutes.

Acute toxicity (LD50) = conditions: in vivo
[2] = blood pressure, read-out: Antagonistic Activity against Isoproterenol (% Inhibition of changes in BP)
[3] = heart rate, read-out: Antagonistic Activity against Isoproterenol (% Inhibition of changes in HR)

| Structure (SMILES) | inhibition at 0.0001 mg/kg (β-adrenergic nerves; [2]) [%] | inhibition at 0.001 mg/kg (β-adrenergic nerves; [2]) [%] | inhibition at 0.01 mg/kg (β-adrenergic nerves; [2]) [%] | inhibition at 0.1 mg/kg (β-adrenergic nerves; [2]) [%] | inhibition at 0.0001 mg/kg (β-adrenergic nerves; [3]) [%] | inhibition at 0.01 mg/kg (β-adrenergic nerves; [3]) [%] | inhibition at 0.1 mg/kg (β-adrenergic nerves; [3]) [%] | Hypotensive Action (Blood Pressure mmHg) ([1]; 0.1 μg/kg i.v.) [mmHg] | Hypotensive Action (Blood Pressure mmHg) ([1]; 1.0 μg/kg i.v.) [mmHg] | Hypotensive Action (Blood Pressure mmHg) ([1]; 10 μg/kg i.v.) [mmHg] | Hypotensive Action (Blood Pressure mmHg) ([1]; 100 μg/kg i.v.) [mmHg] | LD50 (Acute toxicity (LD50); iv) [mg/kg] | LD50 (Acute toxicity (LD50); po) [mg/kg] | further results |
| --- | --- | --- | --- | --- | --- | --- | --- | --- | --- | --- | --- | --- | --- | --- |
| CC(C)(C)NCC(O)COc1ccc(O)c2c1CCC(=O)N2 (centres unmarked) [drawing 12] | 18.4 | 64.6 | 94.8 | 100 | 5.1 | 97.5 | 100 |  |  |  |  |  |  | inhibition at 0.001 mg/kg (β-adrenergic nerves; [3]): 44.5% |
| COc1ccc(OCC(O)CNC(C)(C)C)c2c1NC(=O)CC2 (centres unmarked) [drawing 13] | 40.6 | 54.4 | 77.1 | 82.2 | 7 | 39.8 | 80.5 |  |  |  |  |  |  |  |
| CC(C)(C)NCC(O)COc1ccc(OCc2ccccc2)c2c1CCC(=O)N2 (centres unmarked) [drawing 14] | 20 | 10.9 | 12.6 | 8.4 | 13.5 | 21.4 | 65.4 |  |  |  |  |  |  | inhibition at 0.001 mg/kg (β-adrenergic nerves; [3]): 13.5% |
| CC(C)(C)NCC(O)COc1ccc(O)c2c1CCC(=O)N2 (centres unmarked) [drawing 15] |  |  |  |  |  |  |  | -1.6 | -5.4 | -11.8 | -30.6 |  |  |  |
| COc1ccc(OCC(O)CNC(C)(C)C)c2c1NC(=O)CC2 (centres unmarked) [drawing 16] |  |  |  |  |  |  |  | 0.0 | -2.0 | -3.5 | -5.5 |  |  |  |
| CC(C)(C)NCC(O)COc1ccc(OCc2ccccc2)c2c1CCC(=O)N2 (centres unmarked) [drawing 17] |  |  |  |  |  |  |  | -1.0 | -4.5 | -10.5 | -16.0 |  |  |  |
| CC(C)(C)NCC(O)COc1ccc(O)c2c1CCC(=O)N2 (centres unmarked) [drawing 18] |  |  |  |  |  |  |  |  |  |  |  | 94 | 1380 |  |
| COc1ccc(OCC(O)CNC(C)(C)C)c2c1NC(=O)CC2 (centres unmarked) [drawing 19] |  |  |  |  |  |  |  |  |  |  |  | 83 | 1210 |  |
| CC(C)(C)NCC(O)COc1ccc(OCc2ccccc2)c2c1CCC(=O)N2 (centres unmarked) [drawing 20] |  |  |  |  |  |  |  |  |  |  |  | 80 | 1150 |  |
